Test results reported in patent US20230257396A1, “MACROCYCLES AND THEIR USE” (BLOSSOMHILL THERAPEUTICS, INC., priority 2020, published 2023).

Assays:
Experiment in all cases: KINOMEscan kinase binding assay (Eurofins/DiscoveRx), % Ctrl
kinases [1] = biological target: T1, kinases (Homo sapiens, UniProt P36888); conditions: 1 μM; for % Ctrl, FLT3-autoinhibited: target FLT3-autoinhibited; for % Ctrl, FLT3: target FLT3
T1 construct: purchased Eurofins/DiscoveRx; host or cells: E. coli BL21-derived host (T7 phage display) for most kinases; HEK-293 for the rest
T1 sequence (P36888 27-993): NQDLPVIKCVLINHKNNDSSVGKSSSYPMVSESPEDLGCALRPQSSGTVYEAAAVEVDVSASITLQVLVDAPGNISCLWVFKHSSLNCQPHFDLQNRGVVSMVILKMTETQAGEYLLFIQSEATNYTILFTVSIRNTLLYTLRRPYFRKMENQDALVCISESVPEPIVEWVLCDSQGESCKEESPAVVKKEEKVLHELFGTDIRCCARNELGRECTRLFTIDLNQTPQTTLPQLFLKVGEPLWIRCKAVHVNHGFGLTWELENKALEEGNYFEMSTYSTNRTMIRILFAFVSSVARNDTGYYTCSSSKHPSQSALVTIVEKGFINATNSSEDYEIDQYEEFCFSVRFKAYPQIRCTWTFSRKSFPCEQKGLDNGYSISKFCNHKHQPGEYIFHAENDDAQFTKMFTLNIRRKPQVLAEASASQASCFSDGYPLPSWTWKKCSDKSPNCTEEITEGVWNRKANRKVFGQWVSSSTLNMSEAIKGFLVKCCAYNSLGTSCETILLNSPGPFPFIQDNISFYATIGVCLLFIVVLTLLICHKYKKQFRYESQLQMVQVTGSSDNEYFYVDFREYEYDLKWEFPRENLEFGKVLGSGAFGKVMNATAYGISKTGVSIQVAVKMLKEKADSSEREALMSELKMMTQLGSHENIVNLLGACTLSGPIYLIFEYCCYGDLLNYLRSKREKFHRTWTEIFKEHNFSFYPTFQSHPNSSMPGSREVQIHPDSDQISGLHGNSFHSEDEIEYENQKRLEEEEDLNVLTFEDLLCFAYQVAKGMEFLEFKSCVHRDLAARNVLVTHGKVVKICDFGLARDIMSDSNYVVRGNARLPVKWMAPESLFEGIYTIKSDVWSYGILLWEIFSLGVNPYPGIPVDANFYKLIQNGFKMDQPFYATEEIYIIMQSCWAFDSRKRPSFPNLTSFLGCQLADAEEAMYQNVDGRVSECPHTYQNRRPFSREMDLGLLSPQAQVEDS
Method in brief: (§1)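 Read-out is qPCR of kinase eluted from ligand-coated streptavidin beads after 1 h room-temperature competition with test compound. Values are % Ctrl at the tested concentration, lower meaning tighter binding.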

kinases [2] = biological target: T2, kinases (Homo sapiens, UniProt P16234); conditions: target PDGFRA; 1 μM
T2 construct: purchased Eurofins/DiscoveRx; host or cells: E. coli BL21-derived host (T7 phage display) for most kinases; HEK-293 for the rest
T2 sequence (P16234 24-1089): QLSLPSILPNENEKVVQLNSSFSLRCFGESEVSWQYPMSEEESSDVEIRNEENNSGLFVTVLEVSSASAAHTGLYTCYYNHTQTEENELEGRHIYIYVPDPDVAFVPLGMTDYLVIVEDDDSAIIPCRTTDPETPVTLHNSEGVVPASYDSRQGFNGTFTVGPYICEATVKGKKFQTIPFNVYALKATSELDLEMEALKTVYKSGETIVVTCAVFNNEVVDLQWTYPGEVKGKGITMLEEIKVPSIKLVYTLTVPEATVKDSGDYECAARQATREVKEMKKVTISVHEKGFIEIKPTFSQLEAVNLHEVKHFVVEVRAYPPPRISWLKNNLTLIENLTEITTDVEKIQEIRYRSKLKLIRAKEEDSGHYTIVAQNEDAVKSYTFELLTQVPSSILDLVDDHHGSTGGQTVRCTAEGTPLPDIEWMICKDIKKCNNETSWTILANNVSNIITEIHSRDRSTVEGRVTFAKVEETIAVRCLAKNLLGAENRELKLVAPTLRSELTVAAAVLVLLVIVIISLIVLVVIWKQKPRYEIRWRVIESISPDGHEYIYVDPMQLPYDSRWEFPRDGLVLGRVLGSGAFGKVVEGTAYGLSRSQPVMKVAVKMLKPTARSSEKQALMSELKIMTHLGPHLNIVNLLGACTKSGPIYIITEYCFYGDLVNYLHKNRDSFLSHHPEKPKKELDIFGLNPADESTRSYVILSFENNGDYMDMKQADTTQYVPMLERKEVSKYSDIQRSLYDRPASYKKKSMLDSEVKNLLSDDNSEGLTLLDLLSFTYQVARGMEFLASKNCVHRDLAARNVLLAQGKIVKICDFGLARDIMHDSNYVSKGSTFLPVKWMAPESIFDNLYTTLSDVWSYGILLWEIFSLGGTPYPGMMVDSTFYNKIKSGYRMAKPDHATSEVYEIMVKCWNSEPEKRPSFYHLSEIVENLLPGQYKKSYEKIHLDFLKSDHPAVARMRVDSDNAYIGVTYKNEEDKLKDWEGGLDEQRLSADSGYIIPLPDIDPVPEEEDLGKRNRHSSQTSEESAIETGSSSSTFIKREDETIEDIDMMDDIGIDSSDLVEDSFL
Method in brief: as §1

kinases [3] = biological target: T3, kinases (Homo sapiens, UniProt P00519, T315I); conditions: 1 μM; for % Ctrl, ABL1(T315I)-nonphosphorylated: target ABL1(T315I)-nonphosphorylated; for % Ctrl, ABL1(T315I)-phosphorylated: target ABL1(T315I)-phosphorylated
T3 construct: purchased Eurofins/DiscoveRx; host or cells: E. coli BL21-derived host (T7 phage display) for most kinases; HEK-293 for the rest
Method in brief: as §1

kinases [4] = biological target: T4, kinases (Homo sapiens, UniProt P00533, L861Q); conditions: target EGFR(L861Q); 1 μM
T4 construct: purchased Eurofins/DiscoveRx; host or cells: E. coli BL21-derived host (T7 phage display) for most kinases; HEK-293 for the rest
Method in brief: as §1

kinases [5] = biological target: T5, kinases (Homo sapiens, UniProt P42684); conditions: target ABL2; 1 μM
T5 construct: purchased Eurofins/DiscoveRx; host or cells: E. coli BL21-derived host (T7 phage display) for most kinases; HEK-293 for the rest
T5 sequence (P42684 whole entry): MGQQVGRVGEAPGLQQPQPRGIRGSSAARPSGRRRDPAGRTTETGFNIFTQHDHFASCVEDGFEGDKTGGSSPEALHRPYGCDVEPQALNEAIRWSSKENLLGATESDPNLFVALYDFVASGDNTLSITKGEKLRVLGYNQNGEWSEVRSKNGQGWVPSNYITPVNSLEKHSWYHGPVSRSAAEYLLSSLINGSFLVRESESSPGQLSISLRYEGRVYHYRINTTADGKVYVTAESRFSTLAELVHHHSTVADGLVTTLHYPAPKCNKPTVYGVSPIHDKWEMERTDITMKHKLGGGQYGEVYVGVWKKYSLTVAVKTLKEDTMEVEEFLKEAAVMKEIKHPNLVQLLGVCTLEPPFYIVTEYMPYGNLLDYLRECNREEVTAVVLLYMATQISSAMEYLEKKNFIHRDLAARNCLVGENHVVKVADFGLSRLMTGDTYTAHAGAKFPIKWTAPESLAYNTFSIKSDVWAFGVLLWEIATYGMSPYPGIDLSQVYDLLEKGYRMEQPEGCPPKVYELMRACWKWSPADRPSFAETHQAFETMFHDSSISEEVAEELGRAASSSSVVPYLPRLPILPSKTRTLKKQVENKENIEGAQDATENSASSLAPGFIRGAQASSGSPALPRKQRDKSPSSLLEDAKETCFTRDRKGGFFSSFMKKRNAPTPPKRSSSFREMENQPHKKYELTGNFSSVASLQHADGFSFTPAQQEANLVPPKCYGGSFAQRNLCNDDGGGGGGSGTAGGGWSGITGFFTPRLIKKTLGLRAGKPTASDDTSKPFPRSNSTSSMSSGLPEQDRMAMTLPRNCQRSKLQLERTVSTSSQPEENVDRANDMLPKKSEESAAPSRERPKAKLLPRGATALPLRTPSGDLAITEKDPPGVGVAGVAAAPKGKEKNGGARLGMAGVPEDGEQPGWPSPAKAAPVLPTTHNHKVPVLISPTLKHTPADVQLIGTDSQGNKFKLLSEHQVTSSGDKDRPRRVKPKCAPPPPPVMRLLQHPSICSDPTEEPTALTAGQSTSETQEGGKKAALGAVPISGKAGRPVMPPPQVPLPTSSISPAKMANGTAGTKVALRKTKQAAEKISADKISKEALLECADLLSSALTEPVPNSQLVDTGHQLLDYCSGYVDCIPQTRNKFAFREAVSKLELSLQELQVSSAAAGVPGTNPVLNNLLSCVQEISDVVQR
Method in brief: as §1

kinases [6] = biological target: T6, kinases (Homo sapiens, UniProt P10721, V559D); conditions: target KIT(V559D); 1 μM
T6 construct: purchased Eurofins/DiscoveRx; host or cells: E. coli BL21-derived host (T7 phage display) for most kinases; HEK-293 for the rest
T6 sequence (P10721 26-976 V559D): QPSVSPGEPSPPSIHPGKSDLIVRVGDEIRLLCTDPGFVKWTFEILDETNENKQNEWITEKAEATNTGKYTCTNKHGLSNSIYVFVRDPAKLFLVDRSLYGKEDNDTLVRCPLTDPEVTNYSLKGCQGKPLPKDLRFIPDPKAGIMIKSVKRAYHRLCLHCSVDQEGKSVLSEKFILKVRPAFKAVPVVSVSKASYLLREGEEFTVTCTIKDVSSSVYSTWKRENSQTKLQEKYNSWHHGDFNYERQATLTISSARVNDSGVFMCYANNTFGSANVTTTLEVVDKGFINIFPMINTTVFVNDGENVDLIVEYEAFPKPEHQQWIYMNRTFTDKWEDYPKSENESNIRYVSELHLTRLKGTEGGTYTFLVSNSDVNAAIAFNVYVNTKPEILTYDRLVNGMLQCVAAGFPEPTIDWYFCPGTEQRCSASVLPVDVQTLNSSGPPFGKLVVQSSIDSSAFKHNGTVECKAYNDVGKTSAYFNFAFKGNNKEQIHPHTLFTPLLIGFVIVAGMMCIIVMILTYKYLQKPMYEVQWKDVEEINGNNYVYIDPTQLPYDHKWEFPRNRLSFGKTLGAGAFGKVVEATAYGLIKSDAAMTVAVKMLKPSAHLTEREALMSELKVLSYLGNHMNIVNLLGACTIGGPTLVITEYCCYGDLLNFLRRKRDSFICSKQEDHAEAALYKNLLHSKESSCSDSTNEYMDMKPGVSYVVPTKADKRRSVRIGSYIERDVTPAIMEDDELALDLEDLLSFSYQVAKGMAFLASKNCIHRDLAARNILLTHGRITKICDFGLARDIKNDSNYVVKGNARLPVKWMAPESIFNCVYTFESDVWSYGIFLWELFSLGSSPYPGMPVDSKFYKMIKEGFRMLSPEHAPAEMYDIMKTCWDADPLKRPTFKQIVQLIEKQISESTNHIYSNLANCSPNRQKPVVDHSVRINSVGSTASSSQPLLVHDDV
Method in brief: as §1

kinases [7] = biological target: T7, kinases (Homo sapiens, UniProt P10721, D816H); conditions: target KIT(D816H); 1 μM
T7 construct: purchased Eurofins/DiscoveRx; host or cells: E. coli BL21-derived host (T7 phage display) for most kinases; HEK-293 for the rest
T7 sequence (P10721 26-976 D816H): as the sequence (P10721 26-976 V559D) above, with D534V, D791H counted along it
Method in brief: as §1

kinases [8] = biological target: T8, kinases (Homo sapiens, UniProt P00519); conditions: 1 μM; for % Ctrl, ABL1-nonphosphorylated: target ABL1-nonphosphorylated; for % Ctrl, ABL1-phosphorylated: target ABL1-phosphorylated
T8 construct: purchased Eurofins/DiscoveRx; host or cells: E. coli BL21-derived host (T7 phage display) for most kinases; HEK-293 for the rest
Method in brief: as §1

kinases [9] = biological target: T9, kinases (Homo sapiens, UniProt P07949); conditions: target RET; 1 μM
T9 construct: purchased Eurofins/DiscoveRx; host or cells: E. coli BL21-derived host (T7 phage display) for most kinases; HEK-293 for the rest
T9 sequence (P07949 29-1114): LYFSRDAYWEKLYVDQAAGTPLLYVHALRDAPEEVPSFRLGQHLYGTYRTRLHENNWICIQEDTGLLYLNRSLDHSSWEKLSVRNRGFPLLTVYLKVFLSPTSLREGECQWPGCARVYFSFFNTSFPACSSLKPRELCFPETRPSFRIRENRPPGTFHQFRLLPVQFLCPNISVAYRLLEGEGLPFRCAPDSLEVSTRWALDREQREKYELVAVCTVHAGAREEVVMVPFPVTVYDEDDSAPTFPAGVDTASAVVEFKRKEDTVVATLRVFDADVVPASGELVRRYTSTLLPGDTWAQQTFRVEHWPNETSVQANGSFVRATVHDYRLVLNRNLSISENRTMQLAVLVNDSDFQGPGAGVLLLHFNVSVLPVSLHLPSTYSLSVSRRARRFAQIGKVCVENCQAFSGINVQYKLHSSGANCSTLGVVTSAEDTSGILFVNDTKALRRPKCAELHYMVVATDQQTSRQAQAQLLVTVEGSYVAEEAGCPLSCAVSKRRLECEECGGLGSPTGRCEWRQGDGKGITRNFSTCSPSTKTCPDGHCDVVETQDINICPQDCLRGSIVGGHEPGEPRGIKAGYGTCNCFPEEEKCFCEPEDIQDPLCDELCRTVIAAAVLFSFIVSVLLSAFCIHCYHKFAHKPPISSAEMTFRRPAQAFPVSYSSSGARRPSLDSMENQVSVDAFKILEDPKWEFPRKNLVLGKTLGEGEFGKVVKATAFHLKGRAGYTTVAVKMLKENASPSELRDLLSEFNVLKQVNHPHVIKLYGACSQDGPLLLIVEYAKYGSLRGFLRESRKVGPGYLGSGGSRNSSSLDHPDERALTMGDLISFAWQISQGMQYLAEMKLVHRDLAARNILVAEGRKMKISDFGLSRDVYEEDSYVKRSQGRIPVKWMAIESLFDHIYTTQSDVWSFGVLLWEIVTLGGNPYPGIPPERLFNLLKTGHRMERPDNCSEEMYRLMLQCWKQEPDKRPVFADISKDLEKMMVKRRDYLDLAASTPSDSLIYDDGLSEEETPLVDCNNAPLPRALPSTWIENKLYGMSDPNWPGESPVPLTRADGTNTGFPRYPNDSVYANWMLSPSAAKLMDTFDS
Method in brief: as §1

kinases [10] = biological target: T10, kinases (Homo sapiens, UniProt P00519, E255K); conditions: target ABL1(E255K)-phosphorylated; 1 μM
T10 construct: purchased Eurofins/DiscoveRx; host or cells: E. coli BL21-derived host (T7 phage display) for most kinases; HEK-293 for the rest
Method in brief: as §1

kinases [11] = biological target: T11, kinases (Homo sapiens, UniProt P07949, M918T); conditions: target RET(M918T); 1 μM
T11 construct: purchased Eurofins/DiscoveRx; host or cells: E. coli BL21-derived host (T7 phage display) for most kinases; HEK-293 for the rest
T11 sequence (P07949 29-1114 M918T): as the sequence (P07949 29-1114) above, with M890T counted along it
Method in brief: as §1

kinases [12] = biological target: T12, kinases (Homo sapiens, UniProt P00533, DEL752-759); conditions: target EGFR(S752-I759del); 1 μM
T12 construct: purchased Eurofins/DiscoveRx; host or cells: E. coli BL21-derived host (T7 phage display) for most kinases; HEK-293 for the rest
Method in brief: as §1

kinases [13] = biological target: T13, kinases (Homo sapiens, UniProt P00519, Q252H); conditions: 1 μM; for % Ctrl, ABL1(Q252H)-nonphosphorylated: target ABL1(Q252H)-nonphosphorylated; for % Ctrl, ABL1(Q252H)-phosphorylated: target ABL1(Q252H)-phosphorylated
T13 construct: purchased Eurofins/DiscoveRx; host or cells: E. coli BL21-derived host (T7 phage display) for most kinases; HEK-293 for the rest
Method in brief: as §1

SMILES	% Ctrl, FLT3-autoinhibited (kinases [1]) [% Ctrl]	% Ctrl, FLT3 (kinases [1]) [% Ctrl]	% Ctrl, PDGFRA (kinases [2]) [% Ctrl]	% Ctrl, ABL1(T315I)-nonphosphorylated (kinases [3]) [% Ctrl]	% Ctrl, ABL1(T315I)-phosphorylated (kinases [3]) [% Ctrl]	% Ctrl, EGFR(L861Q) (kinases [4]) [% Ctrl]	% Ctrl, ABL2 (kinases [5]) [% Ctrl]	% Ctrl, KIT(V559D) (kinases [6]) [% Ctrl]	% Ctrl, KIT(D816H) (kinases [7]) [% Ctrl]	% Ctrl, ABL1-nonphosphorylated (kinases [8]) [% Ctrl]	% Ctrl, ABL1-phosphorylated (kinases [8]) [% Ctrl]	% Ctrl, RET (kinases [9]) [% Ctrl]	% Ctrl, ABL1(E255K)-phosphorylated (kinases [10]) [% Ctrl]	% Ctrl, RET(M918T) (kinases [11]) [% Ctrl]	% Ctrl, EGFR(S752-I759del) (kinases [12]) [% Ctrl]	% Ctrl, ABL1(Q252H)-nonphosphorylated (kinases [13]) [% Ctrl]	% Ctrl, ABL1(Q252H)-phosphorylated (kinases [13]) [% Ctrl]
Cc1cc2c([nH]1)/C=C1\C(=O)Nc3cc(Cl)c(cc31)OCCO[C@@H](C(=O)N1CCN(C)CC1)CN(C)C2=O [Ex. 138, [7R,16a(17)Z]-19-chloro-2,5-dimethyl-7-(4-methylpipearazine-1-carbonyl)-6,7,9,10-tetrahydro-1H-12,14-(ethanediylidene)dipyrrolo[3,2-i:3′,4′-l][1,4,7]dioxazacyclopentadecine-4,16(5H,15H)-dione]	76	77	75	87	76	100	98	97	82	79	100	63	61	72	92	100	98
CN1CCOCCOc2cc3c(cc2Cl)NC(=O)/C3=C\c2[nH]ccc2C1=O [Ex. 143, [16a(17)Z]-19-chloro-2,5-dimethyl-6,7,9,10-tetrahydro-1H-12,14-(ethanediylidene)dipyrrolo[3,2-i:3′,4′-l][1,4,7]oxathiazacyclopentadecine-4,16(5H,15H)-dione]	62	15	41	42	27	100	40	5.4	59	6	11	0.6	6.4	0.7	86	4.1	5.2

Continued, values first:

% Ctrl, FLT3-autoinhibited (kinases [1]) [% Ctrl]	% Ctrl, FLT3 (kinases [1]) [% Ctrl]	% Ctrl, PDGFRA (kinases [2]) [% Ctrl]	% Ctrl, ABL1(T315I)-nonphosphorylated (kinases [3]) [% Ctrl]	% Ctrl, ABL1(T315I)-phosphorylated (kinases [3]) [% Ctrl]	% Ctrl, EGFR(L861Q) (kinases [4]) [% Ctrl]	% Ctrl, ABL2 (kinases [5]) [% Ctrl]	% Ctrl, KIT(V559D) (kinases [6]) [% Ctrl]	% Ctrl, KIT(D816H) (kinases [7]) [% Ctrl]	% Ctrl, ABL1-nonphosphorylated (kinases [8]) [% Ctrl]	% Ctrl, ABL1-phosphorylated (kinases [8]) [% Ctrl]	% Ctrl, RET (kinases [9]) [% Ctrl]	% Ctrl, ABL1(E255K)-phosphorylated (kinases [10]) [% Ctrl]	% Ctrl, RET(M918T) (kinases [11]) [% Ctrl]	% Ctrl, EGFR(S752-I759del) (kinases [12]) [% Ctrl]	% Ctrl, ABL1(Q252H)-nonphosphorylated (kinases [13]) [% Ctrl]	% Ctrl, ABL1(Q252H)-phosphorylated (kinases [13]) [% Ctrl]	SMILES
67	33	74	0.1	3	88	70	91	67	17	9.8	42	4.7	41	74	7.8	5.1	Cc1cc2c([nH]1)/C=C1\C(=O)Nc3ccc(cc31)-c1c(noc1C)CNCCN(C)C2=O [Ex. 139, [3a(4)Z]-6,9,16-trimethyl-10,11,12,13-tetrahydro-2H-1,17-(ethanediylidene)[1,2]oxazolo[4,3-m]dipyrrolo[3,2-f:3′,4′-i][1,4]diazacyclopentadecine-3,8(5H,9H)-dione]
100	24	100	64	34	89	83	75	100	64	100	45	57	27	83	74	93	Cc1cc2c([nH]1)/C=C1\C(=O)Nc3ccc(cc31)-c1c(C)nn(C)c1COCCN(C)C2=O [Ex. 146, [3a(4)Z]-6,9,14,16-tetramethyl-10,11,13,14-tetrahydro-2H-1,17-(ethanediylidene)pyrazolo[4,3-m]dipyrrolo[3,2-f:3′,4′-i][1,4]oxazacyclopentadecine-3,8(5H,9H)-dione]
82	71	92	93	83	69	95	88	87	82	82	93	95	90	100	93	100	Cc1nn(C)c2c1-c1ccc3c(c1)/C(=C/c1[nH]ccc1C(=O)N(C)CCCO2)C(=O)N3 [Ex. 150, [3a(4)Z]-9,14,16-trimethyl-10,11,13,14-tetrahydro-2H-1,17-(ethanediylidene)pyrazolo[4,3-m]dipyrrolo[3,2-f:3′,4′-i][1,4]oxazacyclopentadecine-3,8(5H,9H)-dione]
